Measurements taken from ChEMBL document CHEMBL3751801, “Synthesis of novel polybrominated benzimidazole derivatives-potential CK2 inhibitors with anticancer and proapoptotic activity” (Bioorg Med Chem, 2016).
pKi: −log10 of the molar value.

Legend:
[1] = biological target: Casein kinase II subunit alpha (Homo sapiens, UniProt P68400); test: Inhibition of recombinant human CK2alpha using RRRDDDSDDD substrate peptide by scintillation counter in presence of [32P]ATP
[2] = biological target: T1, CDK2/Cyclin A2 (Homo sapiens) (UniProt P24941+P20248); test: Inhibition of CDK2/CycA2 (unknown origin) assessed as enzyme activity at 5 microM; format: protein-complex assay; parameters: scale not given: the % may be the effect or the level left
[3] = biological target: Casein kinase I isoform alpha (Homo sapiens) (UniProt P48729); test: Inhibition of CK1-alpha1 (unknown origin) assessed as enzyme activity at 5 uM; parameters: scale not given: the % may be the effect or the level left
[4] = biological target: Dual specificity tyrosine-phosphorylation-regulated kinase 1A (Homo sapiens) (UniProt Q13627); test: Inhibition of DYRK1A (unknown origin) assessed as enzyme activity at 5 uM; parameters: scale not given: the % may be the effect or the level left
[5] = biological target: Mitogen-activated protein kinase 3 (Homo sapiens) (UniProt P27361); test: Inhibition of Erk1 (unknown origin) assessed as enzyme activity at 5 uM; parameters: scale not given: the % may be the effect or the level left
[6] = biological target: Homeodomain-interacting protein kinase 1 (Homo sapiens) (UniProt Q86Z02); test: Inhibition of HIPK1 (unknown origin) assessed as enzyme activity at 5 uM; parameters: scale not given: the % may be the effect or the level left
[7] = biological target: Serine/threonine-protein kinase pim-1 (Homo sapiens) (UniProt P11309); test: Inhibition of PIM1 (unknown origin) assessed as enzyme activity at 5 uM; parameters: scale not given: the % may be the effect or the level left
Homo sapiens [8] = species: Homo sapiens; test: Inhibition of PKA (unknown origin) assessed as enzyme activity at 5 uM; parameters: scale not given: the % may be the effect or the level left
[9] = biological target: T2, Serine/threonine-protein kinase D2 (Homo sapiens) (UniProt Q9BZL6); test: Inhibition of PRKD2 (unknown origin) assessed as enzyme activity at 5 uM; parameters: scale not given: the % may be the effect or the level left
T2 sequence (whole entry): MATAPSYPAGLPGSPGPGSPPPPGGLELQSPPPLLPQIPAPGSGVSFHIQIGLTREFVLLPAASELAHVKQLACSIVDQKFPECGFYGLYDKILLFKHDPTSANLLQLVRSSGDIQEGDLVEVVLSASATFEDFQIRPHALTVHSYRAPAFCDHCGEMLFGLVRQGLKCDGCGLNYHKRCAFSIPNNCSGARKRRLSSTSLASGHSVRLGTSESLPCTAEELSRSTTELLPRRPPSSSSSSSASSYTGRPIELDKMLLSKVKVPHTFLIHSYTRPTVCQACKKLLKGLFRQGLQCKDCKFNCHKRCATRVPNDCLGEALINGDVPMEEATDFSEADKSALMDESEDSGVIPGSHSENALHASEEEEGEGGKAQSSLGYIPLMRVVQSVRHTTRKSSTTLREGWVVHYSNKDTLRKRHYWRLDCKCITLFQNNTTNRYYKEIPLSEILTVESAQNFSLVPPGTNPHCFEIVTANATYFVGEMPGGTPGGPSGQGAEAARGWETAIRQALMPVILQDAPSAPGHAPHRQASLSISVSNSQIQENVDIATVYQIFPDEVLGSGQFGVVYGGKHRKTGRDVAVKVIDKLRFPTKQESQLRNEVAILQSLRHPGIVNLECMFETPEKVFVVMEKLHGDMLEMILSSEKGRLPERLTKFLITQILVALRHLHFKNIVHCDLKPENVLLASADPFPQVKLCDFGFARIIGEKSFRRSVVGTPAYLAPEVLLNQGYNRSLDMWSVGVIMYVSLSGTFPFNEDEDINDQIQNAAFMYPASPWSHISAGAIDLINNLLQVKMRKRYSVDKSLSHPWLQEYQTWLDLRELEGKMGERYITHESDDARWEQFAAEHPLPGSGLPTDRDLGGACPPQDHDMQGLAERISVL

CCRF-CEM [10] = test: Cytotoxicity against human CCRF-CEM cells assessed as cell viability at 10 uM after 24 hrs by MTT assay; format: functional; settings: read-out: Activity
CCRF-CEM [11] = test: Cytotoxicity against human CCRF-CEM cells assessed as cell viability at 20 uM after 24 hrs by MTT assay; format: functional; settings: read-out: Activity
CCRF-CEM [12] = test: Cytotoxicity against human CCRF-CEM cells assessed as cell viability at 50 uM after 24 hrs by MTT assay; format: functional; settings: read-out: Activity
MCF7 [13] = test: Cytotoxicity against human MCF7 cells assessed as cell viability at 10 uM after 24 hrs by MTT assay; format: functional; settings: MCF7, 24 h, read-out: Activity
MCF7 [14] = test: Cytotoxicity against human MCF7 cells assessed as cell viability at 20 uM after 24 hrs by MTT assay; format: functional; settings: MCF7, 24 h, read-out: Activity
MCF7 [15] = test: Cytotoxicity against human MCF7 cells assessed as cell viability at 50 uM after 24 hrs by MTT assay; format: functional; settings: MCF7, 24 h, read-out: Activity
CCRF-CEM [16] = test: Induction of apoptosis in human CCRF-CEM cells assessed as viable cells at 10 uM after 24 hrs by annexinV and propidium iodide staining based FACS analysis (reference value: 96.4 +/- 1.2%); format: functional; settings: read-out: Activity
CCRF-CEM [17] = test: Induction of apoptosis in human CCRF-CEM cells assessed as viable cells at 50 uM after 24 hrs by annexinV and propidium iodide staining based FACS analysis (reference value: 96.4 +/- 1.2%); format: functional; settings: read-out: Activity
CCRF-CEM [18] = test: Induction of apoptosis in human CCRF-CEM cells assessed as early apoptotic cells at 10 uM after 24 hrs by annexinV and propidium iodide staining based FACS analysis (reference value: 1.5 +/- 0.8%); format: functional
CCRF-CEM [19] = test: Induction of apoptosis in human CCRF-CEM cells assessed as early apoptotic cells at 50 uM after 24 hrs by annexinV and propidium iodide staining based FACS analysis (reference value: 1.5 +/- 0.8%); format: functional
CCRF-CEM [20] = test: Induction of apoptosis in human CCRF-CEM cells assessed as late apoptotic cells at 10 uM after 24 hrs by annexinV and propidium iodide staining based FACS analysis (reference value: 1.9 +/- 0.5%); format: functional
CCRF-CEM [21] = test: Induction of apoptosis in human CCRF-CEM cells assessed as late apoptotic cells at 50 uM after 24 hrs by annexinV and propidium iodide staining based FACS analysis (reference value: 1.9 +/- 0.5%); format: functional
CCRF-CEM [22] = test: Induction of apoptosis in human CCRF-CEM cells assessed as necrotic cells at 10 uM after 24 hrs by annexinV and propidium iodide staining based FACS analysis (reference value: 0.1 +/- 0.1%); format: functional
CCRF-CEM [23] = test: Induction of apoptosis in human CCRF-CEM cells assessed as necrotic cells at 50 uM after 24 hrs by annexinV and propidium iodide staining based FACS analysis (reference value: 0.1 +/- 0.1%); format: functional
[24] = biological target: Casein kinase II (Homo sapiens) (UniProt P67870+P68400+P19784); settings: CCRF-CEM, 5 uM
[25] = biological target: T1, CDK2/Cyclin A2 (Homo sapiens); test: Inhibition of CDK2/CycA2 (unknown origin) assessed as enzyme activity at 10 uM; format: protein-complex assay; parameters: scale not given: the % may be the effect or the level left
[26] = biological target: Casein kinase I isoform alpha (Homo sapiens) (UniProt P48729); test: Inhibition of CK1-alpha1 (unknown origin) assessed as enzyme activity at 10 uM; parameters: scale not given: the % may be the effect or the level left
[27] = biological target: Dual specificity tyrosine-phosphorylation-regulated kinase 1A (Homo sapiens) (UniProt Q13627); test: Inhibition of DYRK1A (unknown origin) assessed as enzyme activity at 10 uM; parameters: scale not given: the % may be the effect or the level left
[28] = biological target: Mitogen-activated protein kinase 3 (Homo sapiens) (UniProt P27361); test: Inhibition of Erk1 (unknown origin) assessed as enzyme activity at 10 uM; parameters: scale not given: the % may be the effect or the level left
[29] = biological target: Homeodomain-interacting protein kinase 1 (Homo sapiens) (UniProt Q86Z02); test: Inhibition of HIPK1 (unknown origin) assessed as enzyme activity at 10 uM; parameters: scale not given: the % may be the effect or the level left
[30] = biological target: Serine/threonine-protein kinase pim-1 (Homo sapiens) (UniProt P11309); test: Inhibition of PIM1 (unknown origin) assessed as enzyme activity at 10 uM; parameters: scale not given: the % may be the effect or the level left
Homo sapiens [31] = species: Homo sapiens; test: Inhibition of PKA (unknown origin) assessed as enzyme activity at 10 uM; parameters: scale not given: the % may be the effect or the level left
[32] = biological target: T2, Serine/threonine-protein kinase D2 (Homo sapiens); test: Inhibition of PRKD2 (unknown origin) assessed as enzyme activity at 10 uM; parameters: scale not given: the % may be the effect or the level left

Row | Structure (SMILES) | viability at 10 µM (CCRF-CEM [10]) [%] | viability at 20 µM (CCRF-CEM [11]) [%] | viability at 50 µM (CCRF-CEM [12]) [%] | viability at 10 µM (MCF7 [13]) [%] | viability at 20 µM (MCF7 [14]) [%] | viability at 50 µM (MCF7 [15]) [%] | viability at 10 µM (CCRF-CEM [16]) [%] | viability at 50 µM (CCRF-CEM [17]) [%] | Activity (CCRF-CEM [18]) [%] | Activity (CCRF-CEM [19]) [%] | Activity (CCRF-CEM [20]) [%] | Activity (CCRF-CEM [21]) [%] | Activity (CCRF-CEM [22]) [%] | Activity (CCRF-CEM [23]) [%] | further results
1 | Cc1nc2c(Br)c(Br)c(Br)c(Br)c2[nH]1 | 29 | 15 | 6 | 76 | 66 | 33 | 36.7 | 14.2 | 47.3 | 59.8 | 15.3 | 27.3 | 0.5 | 0.4 | pKi [1]: 5.95; Activity [2]: 20%; Activity [3]: 84%; Activity [4]: 17%; Activity [5]: 92%; Activity [6]: 43%; Activity [7]: 6%; Activity (Homo sapiens [8]): 113%; Activity [9]: 14%; inhibition [24]: 20%
2 | Cc1nc2c(Br)c(Br)c(Br)c(Br)c2n1CC#N | 45 | 14 | 2 | 52 | 36 | 11 | 52 | 2.4 | 28.9 | 59.7 | 17.8 | 33.9 | 0.8 | 0.6 | 
3 | Cc1nc2c(Br)c(Br)c(Br)c(Br)c2n1CCCCC#N | 92 | 61 | 55 | 109 | 110 | 42 | 93.5 | 30.2 | 3.6 | 39.9 | 2.9 | 29.3 | 0.1 | 0.6 | 
4 | Cc1nc2c(Br)c(Br)c(Br)c(Br)c2n1CCC#N | 84 | 51 | 2 | 85 | 74 | 15 | 82 | 6.2 | 10.6 | 69.6 | 7.1 | 20.1 | 0.2 | 0.9 | 
5 | Cc1nc2c(Br)c(Br)c(Br)c(Br)c2n1CCCC#N | 68 | 44 | 1 | 65 | 56 | 5 | 82.4 | 3.3 | 10.8 | 14.7 | 6.3 | 76.3 | 0.5 | 5.7 | 
6 | N#CCCn1cnc2c(Br)c(Br)c(Br)c(Br)c21 | 80 | 44 | 2 | 81 | 72 | 23 | 90.6 | 5.4 | 5.4 | 77.2 | 3.9 | 17 | 0.1 | 0.4 | 
7 | N#CCCCCn1cnc2c(Br)c(Br)c(Br)c(Br)c21 | 98 | 70 | 1 | 102 | 99 | 18 | 93.6 | 14.3 | 3.2 | 39.9 | 3.1 | 44.9 | 0.1 | 0.9 | 
8 | N#CCn1cnc2c(Br)c(Br)c(Br)c(Br)c21 | 63 | 28 | 2 | 87 | 65 | 43 | 76.2 | 14.8 | 12.3 | 62.7 | 8.8 | 20.4 | 0.5 | 0.8 | 
9 | N#CCCCn1cnc2c(Br)c(Br)c(Br)c(Br)c21 | 85 | 70 | 2 | 89 | 70 | 16 | 92.8 | 21.5 | 3.3 | 41.1 | 3.8 | 33.3 | 0.1 | 2.3 | 
10 | Brc1c(Br)c(Br)c2[nH]cnc2c1Br | 92 | 67 | 7 | 94 | 77 | 40 | 94.8 | 18.8 | 2.4 | 59.2 | 2.7 | 26 | 0.1 | 1 | Activity [25]: 23%; Activity [26]: 48%; Activity [27]: 3%; Activity [28]: 78%; Activity [29]: 9%; Activity [30]: 2%; Activity (Homo sapiens [31]): 75%; Activity [32]: 5%
